# According to PubChem BioAssay (NCI):
#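 Assay format: 96-well plates, 48-hour exposure. TGI marks complete inhibition of growth.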
# What was measured:
# Assay in all cases: DTP human tumour cell line panel, 48 h
# HCC-2998 colon = system: HCC-2998 colon
# UACC-257 melanoma = system: UACC-257 melanoma
# K-562 leukemia = system: K-562 leukemia
# ACHN renal = system: ACHN renal
# LXFL 529 NSCLC = system: LXFL 529 NSCLC
# HCT-116 colon = system: HCT-116 colon
# HOP-92 NSCLC = system: HOP-92 NSCLC
# DMS 273 small cell lung = system: DMS 273 small cell lung
# RXF 393 renal = system: RXF 393 renal
# SR leukemia = system: SR leukemia
# EKVX NSCLC = system: EKVX NSCLC
# RXF-631 renal = system: RXF-631 renal
# NCI-H226 lung = system: NCI-H226 lung
# SF-539 CNS = system: SF-539 CNS
# HT29 colon = system: HT29 colon
# SW-620 colon = system: SW-620 colon
# IGROV1 ovarian = system: IGROV1 ovarian
# SK-MEL-2 melanoma = system: SK-MEL-2 melanoma
# OVCAR-4 ovarian = system: OVCAR-4 ovarian
# NCI-H460 lung = system: NCI-H460 lung
# M19-MEL melanoma = system: M19-MEL melanoma
# HOP-62 NSCLC = system: HOP-62 NSCLC
# SK-MEL-5 melanoma = system: SK-MEL-5 melanoma
# HL-60(TB) leukemia = system: HL-60(TB) leukemia
# SK-OV-3 ovarian = system: SK-OV-3 ovarian
# SN12C renal = system: SN12C renal
# MALME-3M melanoma = system: MALME-3M melanoma
# OVCAR-8 ovarian = system: OVCAR-8 ovarian
# SK-MEL-28 melanoma = system: SK-MEL-28 melanoma
# SF-295 CNS = system: SF-295 CNS
# OVCAR-3 ovarian = system: OVCAR-3 ovarian
# COLO 205 colon = system: COLO 205 colon
# LOX IMVI melanoma = system: LOX IMVI melanoma
# OVCAR-5 ovarian = system: OVCAR-5 ovarian
# RPMI-8226 leukemia = system: RPMI-8226 leukemia
# UO-31 renal = system: UO-31 renal
# U251 CNS = system: U251 CNS
# SNB-19 CNS = system: SNB-19 CNS
# KM20L2 colon = system: KM20L2 colon
# A549 NSCLC = system: A549 NSCLC
# HCT-15 colon = system: HCT-15 colon
# SF-268 CNS = system: SF-268 CNS
# UACC-62 melanoma = system: UACC-62 melanoma
# MOLT-4 leukemia = system: MOLT-4 leukemia
# DLD-1 colon = system: DLD-1 colon
# 786-0 renal = system: 786-0 renal
# KM12 colon = system: KM12 colon
# NCI-H522 lung = system: NCI-H522 lung
# CCRF-CEM leukemia = system: CCRF-CEM leukemia
# HOP-18 NSCLC = system: HOP-18 NSCLC
# DMS 114 small cell lung = system: DMS 114 small cell lung
# NCI-H23 lung = system: NCI-H23 lung
# TK-10 renal = system: TK-10 renal
# SNB-75 CNS = system: SNB-75 CNS
# XF 498 CNS = system: XF 498 CNS
# M14 melanoma = system: M14 melanoma
smiles,measurement,setting,value
C=C1C2=C(CCCC2)C(=O)OC12CCCCC2,TGI,HCC-2998 colon,> 100 µM
same,TGI,UACC-257 melanoma,> 100 µM
same,TGI,K-562 leukemia,> 100 µM
same,TGI,ACHN renal,> 100 µM
same,TGI,LXFL 529 NSCLC,> 100 µM
same,TGI,HCT-116 colon,> 100 µM
same,TGI,HOP-92 NSCLC,77.9 µM
same,TGI,DMS 273 small cell lung,> 100 µM
same,TGI,RXF 393 renal,> 100 µM
same,TGI,SR leukemia,> 100 µM
same,TGI,EKVX NSCLC,> 100 µM
same,TGI,RXF-631 renal,> 100 µM
same,TGI,NCI-H226 lung,> 100 µM
same,TGI,SF-539 CNS,> 100 µM
same,TGI,HT29 colon,> 100 µM
same,TGI,SW-620 colon,> 100 µM
same,TGI,IGROV1 ovarian,> 100 µM
same,TGI,SK-MEL-2 melanoma,> 100 µM
same,TGI,OVCAR-4 ovarian,> 100 µM
same,TGI,NCI-H460 lung,> 100 µM
same,TGI,M19-MEL melanoma,> 100 µM
same,TGI,HOP-62 NSCLC,> 100 µM
same,TGI,SK-MEL-5 melanoma,> 100 µM
same,TGI,HL-60(TB) leukemia,> 100 µM
same,TGI,SK-OV-3 ovarian,> 100 µM
same,TGI,SN12C renal,> 100 µM
same,TGI,MALME-3M melanoma,> 100 µM
same,TGI,OVCAR-8 ovarian,> 100 µM
same,TGI,SK-MEL-28 melanoma,> 100 µM
same,TGI,SF-295 CNS,> 100 µM
same,TGI,OVCAR-3 ovarian,> 100 µM
same,TGI,COLO 205 colon,> 100 µM
same,TGI,LOX IMVI melanoma,> 100 µM
same,TGI,OVCAR-5 ovarian,> 100 µM
same,TGI,RPMI-8226 leukemia,> 100 µM
same,TGI,UO-31 renal,> 100 µM
same,TGI,U251 CNS,> 100 µM
same,TGI,SNB-19 CNS,> 100 µM
same,TGI,KM20L2 colon,> 100 µM
same,TGI,A549 NSCLC,> 100 µM
same,TGI,HCT-15 colon,> 100 µM
same,TGI,SF-268 CNS,> 100 µM
same,TGI,UACC-62 melanoma,> 100 µM
same,TGI,MOLT-4 leukemia,> 100 µM
same,TGI,DLD-1 colon,> 100 µM
same,TGI,786-0 renal,> 100 µM
same,TGI,KM12 colon,> 100 µM
same,TGI,NCI-H522 lung,> 100 µM
same,TGI,CCRF-CEM leukemia,> 100 µM
same,TGI,HOP-18 NSCLC,> 100 µM
same,TGI,DMS 114 small cell lung,> 100 µM
same,TGI,NCI-H23 lung,> 100 µM
same,TGI,TK-10 renal,> 100 µM
same,TGI,SNB-75 CNS,> 100 µM
same,TGI,XF 498 CNS,> 100 µM
same,TGI,M14 melanoma,> 100 µM
